A word on the EC50: it is the concentration needed to bring the measured effect to its halfway point. A word on the IC50: it is the concentration that gives 50% inhibition.

The structures appear in SMILES notation.

Consider 19 molecules from patent publication US9758472B2, “Non-lactone carbocyclic and heterocyclic antagonists and agonists of bacterial quorum sensing” (WISCONSIN ALUMNI RESEARCH FOUNDATION, priority 2009, dated 2017).

Experiment [1] concerns the target T1, LasR (Pseudomonas aeruginosa, UniProt P25084).
T1 construct: expressed in transfected cells; host or cells: Escherichia coli DH5α (pJN105L+pSC11)
The experiment is described as follows: LasR agonism assay, E. coli DH5α (pJN105L+pSC11) β-galactosidase reporter strain. In kind it is cell-based, P. aeruginosa. To be noted: for EC50: dose response; for EC50 / LasR agonism, in words / Agonist, percent of activation compared to the positive control: E. coli DH5α (pJN105L+pSC11); for Act %: thiolactone libraries, E. coli, synthetic ligands tested at 10 μM; for Agonist, percent of activation compared to the positive control: initial library (FIG. 4). The procedure: (§1) The black bars are DH5α (pJN105L+pSC11) and the grey bars are PA01 MW1 (pUM15). Agonism positive control=activity of the reporter strain at full turn on for the strain. […] Negative control (Neg)=bacteria in the absence of natural and synthetic ligand. Error bars=standard deviation of the mean of triplicate samples.
(§2) The initial library was tested for LasR agonistic and antagonistic activity in two strains: Escherichia coli DH5α (pJN105L+pSC11) [Lee, J. H.; Lequette, Y.; Greenberg, E. P., Activity of purified QscR, a Pseudomonas aeruginosa orphan quorum-sensing transcription factor. Mol. Microbiol. 2006, 59 (2), 602-609] and P. aeruginosa PA01 MW1 (pUM15) [Muh, U.; Schuster, M.; Heim, R.; Singh, A.; Olson, E.; Greenberg, E. P., Novel Pseudomonas aeruginosa Quorum-Sensing Inhibitors Identified in an Ultra-High-Throughput Screen. Antimicrob. Agents Chemother. 2006, 50, 3674-3679] (FIGS. 5A and 5B). Both strains allow for synthetic autoinducer mimic evaluation and contain a reporter gene that allows for a quantitative readout of QS activity. DH5α (pJN105L+pSC11) is a heterologous β-galactosidase E. coli reporter strain containing a plasmid for the P. aeruginosa LasR gene. The PA01 MW1 (pUM15) strain uses the natural P. aeruginosa background containing a LasI deletion and the gene for yellow fluorescent protein (YFP) under the control of the LasI promoter to evaluate the LasI/R activity. Since the PA01 MW1 (pUM15) strain evaluates LasR in the natural P. aeruginosa background, in contrast to the heterologous E. coli strain, an improved idea of the interplay between the isolated LasI/R system and the combination of LasI/R with other QS subsystems such as QscR can be determined. Furthermore, additional nuances of the natural system such as compound permeability are incorporated in assays using the PA01 MW1 (pUM15) strain.

The next experiment addresses TraR (Agrobacterium tumefaciens, UniProt P33905). Put plainly: cell-based. In kind it is cell-based. Set-up: and Agrobacterium tumefaciens WCF (pCF372); endogenous in cells; host or cells: Agrobacterium tumefaciens WCF (pCF372). Particulars: for IC50: dose response; for Inhib %: thiolactone libraries, A. tumefaciens, synthetic ligands tested at 10 μM. The procedure: (§3) The initial library was also tested in Vibrio fischeri ESI 114 (Δ-LuxI) [Lupp, C.; Urbanowski, M.; Greenberg, E. P.; Ruby, E. G., The Vibrio fischeri quorum-sensing systems ain and lux sequentially induce luminescence gene expression and are important for persistence in the squid host. Mol. Microbiol. 2003, 50 (1), 319-331] and Agrobacterium tumefaciens WCF (pCF372). […] J. Bacteriol. 1998, 180 (20), 5398-5405.] […] [Geske, G. D.; O'Neill, J. C.; Miller, D. M.; Mattmann, M. E.; Blackwell, H. E., Modulation of Bacterial Quorum Sensing: Systematic Evaluation of N-Acylated Homoserine Lactones in Multiple Species and New Insights into Their Mechanism of Action. J. Am. Chem. Soc. 2007, 129, 13613-13625.]

For another experiment, the target named is LuxR (Aliivibrio fischeri, UniProt P35327). Put plainly: cell-based. In kind it is cell-based, Vibrio fischeri. Set-up: The initial library was also tested in Vibrio fischeri ESI 114 (Δ-LuxI); endogenous in cells; host or cells: Vibrio fischeri ESI 114 (Δ-LuxI). Particulars: for Inhib %: thiolactone libraries, V. fischeri, synthetic ligands tested at 10 μM; for Antagonism, in words: V. fischeri strain; for Antagonist, percent inhibition compared to a positive control: initial library (FIG. 4); for Antagonist, percent inhibition compared to a positive control / IC50: V. fischeri ESI 114 (Δ-LuxI); for IC50: dose response. How it is done: as §3
Chain of LuxR (P35327 whole entry): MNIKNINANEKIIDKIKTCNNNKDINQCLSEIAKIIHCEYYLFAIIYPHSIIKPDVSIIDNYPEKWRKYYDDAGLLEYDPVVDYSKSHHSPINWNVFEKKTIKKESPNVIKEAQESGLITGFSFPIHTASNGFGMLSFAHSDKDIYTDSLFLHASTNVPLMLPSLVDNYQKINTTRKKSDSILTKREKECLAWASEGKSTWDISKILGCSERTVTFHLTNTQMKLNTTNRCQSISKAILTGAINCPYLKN

Experiment [2] addresses T1, LasR. Put plainly: LasR antagonism assay, E. coli DH5α (pJN105L+pSC11) β-galactosidase reporter strain. The class given is cell-based, P. aeruginosa. Particulars: thiolactone libraries, synthetic ligands tested at 10 μM.
Experiment [3] concerns the target T1, LasR. Put plainly: LasR agonism assay, P. aeruginosa PA01 MW1 (pUM15) YFP reporter strain. The class given is cell-based. Particulars: for EC50: dose response; for Act %: thiolactone libraries, P. aeruginosa, synthetic ligands tested at 10 μM; for Agonist, percent of activation compared to the positive control: initial library (FIG. 4), P. aeruginosa PA01 MW1. How it is done: as §1, §2

The target in experiment [4] is T1, LasR. Put plainly: LasR antagonism assay, E. coli DH5α (pJN105L+pSC11) β-galactosidase reporter strain. In kind it is cell-based, P. aeruginosa. Particulars: dose response; E. coli DH5α (pJN105L+pSC11). The procedure:
FIG. 5B is a bar graph showing the results of […] assay for initial heterocyclic and carbocyclic library (Scheme 1) shown as a percent of the positive control. Antagonism positive control (Pos)=activity of the reporter strain in the absence of synthetic ligand at the EC50 value for the strain. […] Negative control (Neg)=bacteria in the absence of natural and synthetic ligand. Error bars=standard deviation of the mean of triplicate samples.
as §2

Chain of TraR (P33905 whole entry): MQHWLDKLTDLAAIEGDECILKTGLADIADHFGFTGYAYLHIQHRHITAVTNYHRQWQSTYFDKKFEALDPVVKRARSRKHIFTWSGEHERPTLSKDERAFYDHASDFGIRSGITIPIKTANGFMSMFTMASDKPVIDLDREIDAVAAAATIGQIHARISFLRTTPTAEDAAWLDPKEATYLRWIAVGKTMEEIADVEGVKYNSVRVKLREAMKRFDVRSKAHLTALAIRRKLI
T1 sequence (P25084 whole entry): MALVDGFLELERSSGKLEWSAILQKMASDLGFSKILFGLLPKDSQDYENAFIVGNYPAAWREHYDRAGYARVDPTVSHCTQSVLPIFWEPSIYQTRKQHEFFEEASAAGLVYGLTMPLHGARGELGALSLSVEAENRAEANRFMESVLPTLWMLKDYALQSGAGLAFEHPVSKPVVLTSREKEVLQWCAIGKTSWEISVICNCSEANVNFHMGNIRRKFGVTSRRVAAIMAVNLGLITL

For the molecule `CCCC(=O)CC(=O)N[C@H]1CCSC1=O` [Compound 30E], the EC50 is 0.13 µM at LasR [1] and 13 µM at LasR [3] (P. aeruginosa PA01 MW1 (pUM15)). Also, the Act % at LasR [1] came out at 6%; at LasR [3], 76%. The IC50 on TraR (A. tumefaciens WCF (pCF372)) is 3.2 µM. In addition, the Inhib % is recorded as 93% at TraR, 62% at LuxR and −119% at LasR [2].
As to `CCCCCCCCCC(=O)CC(=O)NC1CCCC1` [Compound 3], on LasR [1], the “LasR agonism, in words” value was “agonist” and the “Agonist, percent of activation compared to the positive control” value (shortened to “Agonist, percent of activation”) is 83.5%. Further, at LuxR, the “Antagonism, in words” value is “modest antagonist” and the “Antagonist, percent inhibition compared to a positive control” value stood at 89.4%. Besides, at LasR [3] (P. aeruginosa PA01 MW1 (pUM15), natural background), the “LasR agonism, in words” value was “agonist”. Also, the “Agonist, percent of activation” value on LasR [3] is 54.2%.
As for `O=C(CCc1c[nH]c2ccccc12)NC1CCSC1=O` (racemic) [Compound 22], the Act % at LasR [1] is 4%; at LasR [3], 10%. For the same molecule, the Inhib % is −80% at TraR, 68% on LuxR and 16% at LasR [2].
`CCCCCCCCCC(=O)CC(=O)NC1CCSC1=O` (stereo not shown) [Compound 1]: the figures for the “Agonist, percent of activation” value on LasR [1] and on LasR [3] were 94% and 88%, respectively. Further, the results for the Act % at LasR [1] and on LasR [3] were 94% and 88%, respectively. The “Antagonism, in words” value on TraR (A. tumefaciens strain) and on LuxR was “good antagonist” in each case. Moreover, the “Antagonist, percent inhibition compared to a positive control” value on TraR (initial library (FIG. 4), A. tumefaciens WCF (pCF372), negative values indicate agonist properties) turned out to be 65%; at LuxR, 92%. Besides, the figures for the Inhib % at TraR, on LuxR and on LasR [2] were 92%, 99% and −40%, respectively.
For `CCCCCC(=O)N[C@H]1CCSC1=O` [Compound 28E], the Act % on LasR [1] is on record as 1%; on LasR [3] it was 20%. In addition, the figures for the IC50 at LasR [4] and against LuxR were 1.1 µM and 0.84 µM, respectively. Also, the Inhib % on TraR was −78%; at LuxR, 93%; on LasR [2], 59%.
As for `O=C(Cc1ccc(Br)cc1)NC1CCSC1=O` (racemic) [Compound 18], the Act % at LasR [1] was 2%; on LasR [3], 8%. For the same molecule, the values for the Inhib % on TraR, on LuxR and on LasR [2] were −60%, 97% and 80%, respectively.
Turning to `CCOC(=O)CNC(=O)CCc1cccc(I)c1` [Compound 34], at LuxR, the “Antagonism, in words” value is given as “excellent antagonistic activity”.
On to `O=C(Cc1ccccc1)NC1CCSC1=O` (racemic) [Compound 21], for which the Act % at LasR [1] and at LasR [3] was 2% in each case. Further, the values for the Inhib % at TraR, at LuxR and on LasR [2] were −22%, 34% and 65%, respectively.
Turning to `O=C(Cc1cccc([N+](=O)[O-])c1)NC1CCSC1=O` (racemic) [Compound 19], the Act % was determined as 82% at LasR [1] and 5% at LasR [3]. Moreover, the Inhib % at TraR is reported as 33%; on LuxR, 19%; at LasR [2], −13%.
Take `CCCC(=O)N[C@H]1CCSC1=O` [Compound 29E]: the values for the Act % on LasR [1] and at LasR [3] were 4% and 22%, respectively. Besides, the Inhib % at TraR is recorded as −70%; at LuxR it was 42%; at LasR [2] it was 17%.
`COc1ccc(CC(=O)N[C@H]2CCSC2=O)cc1` [Compound 20E]: the Act % at LasR [1] was found to be 0%; on LasR [3], 4%. The IC50 at LasR [4] amounted to 7.2 µM. The results for the Inhib % at TraR, at LuxR and at LasR [2] were −24%, 59% and 48%, respectively.
On to `O=C(Cc1ccccc1)N[C@H]1CCSC1=O` [Compound 21E], for which the Act % at LasR [1] turned out to be 3%; on LasR [3], 17%. Further, the IC50 at LasR [4] was found to be 2.5 µM. In addition, the Inhib % is on record as 13% at TraR, 30% on LuxR and 61% at LasR [2].
`O=C(Cc1ccc(-c2ccccc2)cc1)NC1CCSC1=O` (racemic) [Compound 23]: the Act % is on record as 9% at LasR [1] and 3% at LasR [3]. For the same molecule, the Inhib % on TraR was 9%; at LuxR, 98%; at LasR [2], 56%.
`O=C(Cc1ccc(-c2ccccc2)cc1)N[C@H]1CCSC1=O` [Compound 23E]: the Act % at LasR [1] came to 0%; at LasR [3], 1%. In addition, the values for the IC50 at LasR [4] and against LuxR were 2.9 µM and 0.35 µM, respectively. The Inhib % on TraR was 26%; at LuxR, 85%; at LasR [2], 45%.
As for `CCCCCCCCCCCC(=O)N[C@H]1CCSC1=O` [Compound 25E], on LasR [1], the “LasR agonism, in words” value is listed as “strong agonists”. The EC50 was determined as 1.9 µM at LasR [1] and 21 µM at LasR [3] (P. aeruginosa PA01 MW1 (pUM15)). Moreover, the Act % is listed as 4% at LasR [1] and 42% on LasR [3]. Besides, the Inhib % on TraR is listed as 6%; at LuxR, 57%; on LasR [2], −93%.
As to `CCCCCCCC(=O)N[C@H]1CCSC1=O` [Compound 26E], the results for the Act % at LasR [1] and at LasR [3] were 85% and 0%, respectively. Also, the 50% inhibitory concentration (IC50) at LasR [4] was found to be 0.14 µM; against TraR (A. tumefaciens WCF (pCF372)), 2.8 µM; against LuxR, 0.13 µM. Moreover, the Inhib % came out at 99% on TraR, 80% at LuxR and 64% on LasR [2].
For the molecule `COc1ccc(CC(=O)NC2CCSC2=O)cc1` (racemic) [Compound 20], the Act % was found to be 1% at LasR [1] and 7% on LasR [3]. Also, the Inhib % at TraR is recorded as −107%; on LuxR, 70%; on LasR [2] it was 51%.
On to `CCCCCCC(=O)N[C@H]1CCSC1=O` [Compound 27E], for which the results for the Act % on LasR [1] and on LasR [3] were 8% and 0%, respectively. Besides, the concentration for half-maximal inhibition (IC50) turned out to be 0.79 µM at LasR [4], 10 µM on TraR (A. tumefaciens WCF (pCF372)) and 0.31 µM on LuxR. Moreover, the Inhib % on TraR, on LuxR and at LasR [2] was 78% in each case.
In the case of `O=C(Cc1ccc(Br)cc1)N[C@H]1CCSC1=O` [Compound 18E], the Act % is recorded as 8% on LasR [1] and 5% at LasR [3]. Also, the IC50 is 0.4 µM at LasR [4] and 0.77 µM against LuxR. Also, the Inhib % at TraR is on record as 25%; at LuxR it was 91%; at LasR [2], 68%.
